From ChEMBL document CHEMBL1201862, “PubChem BioAssay data set” (2004)
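Growth conditions: 96-well plates. Treatment: test compound, 48 hours, 5 concentrations. Analysis: linear interpolation between bracketing concentrations; unreached endpoints set to highest concentration. GI50 is the concentration that inhibits growth by half.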 The source made the active and inactive calls. Rule as the data show it: active = GI50 up to about 1.1 µM and inactive = higher.

What was measured:
Assay in all cases: NCI-60 cell line screen, 48 h
[1] = system: KM-20L2
[2] = system: RXF 631
[3] = system: LXFL 529
[4] = system: DMS-114
[5] = system: XF498
[6] = system: M19-MEL
[7] = system: DMS-273
[8] = system: T47D
[9] = system: HOP-18

O=c1cccccc1NCCNc1cccccc1=O
GI50 [1]: > 100 µM (inactive)
GI50 [2]: > 100 µM (inactive)
GI50 [3]: > 100 µM (inactive)
GI50 [4]: > 100 µM (inactive)
GI50 [5]: > 100 µM (inactive)
GI50 [6]: > 100 µM (inactive)
GI50 [7]: > 100 µM (inactive)

Cc1cccc(NC(=O)C(=O)C(C(=O)c2ccc3ccccc3c2)C2OC(=O)c3ccccc32)c1C (stereo unspecified)
GI50 [1]: 33 µM (inactive)
GI50 [2]: 7.19 µM (inactive)
GI50 [3]: 9.55 µM (inactive)
GI50 [4]: 7.67 µM (inactive)
GI50 [5]: 1.56 µM (inactive)
GI50 [6]: 9.91 µM (inactive)
GI50 [7]: 13.8 µM (inactive)

CC1(C)CC(=O)C2=C(C1)C(c1ccccc1Cl)C1C(=O)CC(C)(C)CC1(O)O2 (stereo unspecified)
GI50 [8]: > 100 µM (inactive)

CC1=CC(c2ccccc2)n2c(nc3cc4ccccc4cc32)N1 (stereo unspecified)
GI50 [8]: > 100 µM (inactive)

O=C(NCCNCCO)N/N=C/c1ccccc1
GI50 [3]: > 100 µM (inactive)
GI50 [4]: > 100 µM (inactive)
GI50 [5]: > 100 µM (inactive)
GI50 [7]: > 100 µM (inactive)
GI50 [9]: > 100 µM (inactive)

COC(=O)c1sc(=O)sc1SCc1cccc(CSc2sc(=O)sc2C(=O)OC)c1
GI50 [8]: 38.9 µM (inactive)

Cn1c(=O)c2[nH]c(CCC(=O)O)nc2n(C)c1=O
GI50 [8]: > 100 µM (inactive)

O=C(O)c1cc(Cl)cc2c1NC1(N2)C(=O)Nc2ccccc21 (stereo unspecified)
GI50 [8]: > 100 µM (inactive)

O=[As](O)(O)c1cc(/N=N/c2ccc(-c3ccc(/N=N/c4cc([As](=O)(O)O)c(O)cc4O)cc3)cc2)c(O)cc1O
GI50 [1]: > 100 µM (inactive)
GI50 [2]: > 100 µM (inactive)
GI50 [3]: > 100 µM (inactive)
GI50 [4]: > 80.4 µM (inactive)
GI50 [6]: > 100 µM (inactive)
GI50 [7]: > 100 µM (inactive)
GI50 [9]: > 100 µM (inactive)

c1cn[nH]c1 [PYRAZOLE]
GI50 [8]: > 10 µM (inactive)

Cc1c(O)c(O)cc[n+]1C1OC(CO)C(O)C1O (stereo unspecified)
GI50 [1]: > 100 µM (inactive)
GI50 [3]: 33.1 µM (inactive)
GI50 [6]: > 100 µM (inactive)
GI50 [7]: > 100 µM (inactive)
GI50 [9]: > 100 µM (inactive)

CCC12C=CCN3CCC4(C(=C(C(=O)OC)C1)Nc1ccccc14)[C@H]32 (stereo partly specified)
GI50 [1]: 19.8 µM (inactive)
GI50 [3]: 31.6 µM (inactive)
GI50 [4]: 19.2 µM (inactive)
GI50 [6]: 31.3 µM (inactive)
GI50 [7]: 17.9 µM (inactive)
GI50 [9]: 26.5 µM (inactive)

CC1S/C(=N\N=C2/C(=O)Nc3ccc(Br)cc32)N(C2CCCCC2)C1=O (stereo unspecified)
GI50 [8]: 3.96 µM (inactive)

CC1(C)OCC(/C=C\C(O)CC2(C)OCCO2)CO1 (stereo unspecified)
GI50 [8]: > 100 µM (inactive)

O=C(NNc1cn[nH]c(=O)n1)c1cccc2nc3ccccc3nc12
GI50 [8]: > 100 µM (inactive)

Cc1ccc(-c2n[nH]c(=O)[nH]2)cc1
GI50 [8]: > 46.5 µM (inactive)

C[C@H]1CCC/C=C/[C@@H]2C[C@H](OC(=O)CN(C)C)C[C@H]2[C@H](O)/C=C/C(=O)O1
GI50 [8]: 0.329 µM (active)

Cc1cc(Br)cc(C)c1NC(=O)C(=O)Nn1c(S)nc2ccccc2c1=O
GI50 [8]: > 100 µM (inactive)

OCC(O)COCn1nncc1Cn1ncc2c(SCc3ccccc3)ncnc21 (stereo unspecified)
GI50 [8]: > 100 µM (inactive)

Nc1c2ccccc2nc2c1ccc1ncccc12
GI50 [8]: 27.5 µM (inactive)

CC(C)[C@H](NC(=O)[C@@H](O)[C@H](N)Cc1ccccc1)C(=O)N[C@@H](Cc1ccccc1)C(=O)O
GI50 [8]: > 100 µM (inactive)

C[C@H]1CC[C@@H]2[C@@H](C)[C@H]3[C@H](C[C@H]4[C@@H]5CC=C6C[C@@H](O)CC[C@]6(C)[C@H]5C[C@H](O)[C@]34C)N2C1
GI50 [8]: > 100 µM (inactive)

CS/C(=N\Nc1cnc2ccccc2n1)NS(=O)(=O)c1cc(C)c(Cl)cc1Cl
GI50 [8]: > 100 µM (inactive)

Cc1cc(-c2nc3ccc(F)cc3s2)ccc1NC(=O)[C@H](C)N
GI50 [8]: 0.0559 µM (active)

C/C(=N/NC(=S)N(Cc1ccccn1)Cc1ccccn1)c1cnccn1
GI50 [8]: 0.231 µM (active)

O=[N+]([O-])c1ccc(CN(CCCl)OCCCl)cc1
GI50 [8]: 74.5 µM (inactive)

c1cc(CNCCN2CCNCC2)ccn1
GI50 [8]: > 100 µM (inactive)

Nc1nc(N)c(-c2ccccc2)c(CCC(=O)Nc2ccc(Cl)cc2)n1
GI50 [1]: > 100 µM (inactive)
GI50 [3]: > 100 µM (inactive)
GI50 [6]: > 100 µM (inactive)
GI50 [7]: > 100 µM (inactive)
GI50 [9]: > 100 µM (inactive)

CCC12C=CCN3CCC4(c5cc(C6(C(=O)OC)CCCCCc7c6[nH]c6ccccc76)c(OC)cc5N(C)C4C(O)(C(=O)OC)C1OC(C)=O)C32 (stereo unspecified)
GI50 [1]: 2.03 µM (inactive)
GI50 [3]: 1.84 µM (inactive)
GI50 [4]: 2.38 µM (inactive)
GI50 [5]: 2.33 µM (inactive)
GI50 [6]: 2.51 µM (inactive)
GI50 [9]: 2.34 µM (inactive)

CC(C)(C)OC(=O)[C@@H]1ON2O[C@H](OC3CCCC3(c3ccccc3)c3ccccc3)C[C@H]3OC(=O)[C@@H]1[C@H]32 (stereo partly specified)
GI50 [8]: 54 µM (inactive)

O=C(O)C1C2CCC(O2)C1C(=O)N1CCCCC1 (stereo unspecified)
GI50 [1]: 2.65 µM (inactive)
GI50 [2]: 17.4 µM (inactive)
GI50 [3]: 5.02 µM (inactive)
GI50 [4]: 2 µM (inactive)
GI50 [6]: 9.1 µM (inactive)
GI50 [7]: 10.6 µM (inactive)
GI50 [9]: 12.9 µM (inactive)

O=C(NCCCl)N(O)C(=O)Nc1ccccc1
GI50 [8]: > 100 µM (inactive)

BrC1=C(Br)C2(SCCS2)[C@H]2C[C@@H]1c1ccccc12
GI50 [8]: 24.6 µM (inactive)

COC(=O)c1ccc(C)cc1C1CN=NC12Cc1cc(C)ccc1C2=O (stereo unspecified)
GI50 [8]: 20.8 µM (inactive)

CC(C)C(NC(=O)C(Cc1ccccc1)NC(=O)[C@H]1CCC[C@H]1NC(=O)C(N)Cc1ccc(O)cc1)C(N)=O (stereo partly specified)
GI50 [8]: > 100 µM (inactive)

CC(=O)NCCCCN(CCCNC(C)=O)C(=O)CNS(=O)(=O)c1cccc2c(N(C)C)cccc12
GI50 [8]: > 100 µM (inactive)

C/N=c1\ss/c(=N\C(=S)N(C)C)n1C
GI50 [1]: > 100 µM (inactive)
GI50 [3]: > 100 µM (inactive)
GI50 [4]: > 100 µM (inactive)
GI50 [5]: > 100 µM (inactive)
GI50 [6]: > 100 µM (inactive)
GI50 [7]: > 100 µM (inactive)
GI50 [9]: > 100 µM (inactive)

COC(OC)C1OC(CO)C(n2ccc(N)nc2=O)C1O (stereo unspecified)
GI50 [8]: > 100 µM (inactive)

CN1C(=O)N/C(=C\c2ccc(S(=O)(=O)N/N=C/c3ccccc3)cc2)C1=O
GI50 [8]: 35.2 µM (inactive)

COC1=CCC=C(C[C@@H]2NCCc3cc(OC)c(OC)cc32)C1
GI50 [1]: > 100 µM (inactive)
GI50 [3]: > 100 µM (inactive)
GI50 [5]: > 100 µM (inactive)
GI50 [6]: > 100 µM (inactive)
GI50 [7]: > 100 µM (inactive)

O=C1NC2(CCN(CCc3ccccc3)CC2)Oc2ccccc21
GI50 [8]: 49.7 µM (inactive)

COC1(OC)CC2C(=O)N(Cc3ccccc3)C1CC2S(=O)(=O)c1ccccc1 (stereo unspecified)
GI50 [4]: > 100 µM (inactive)
GI50 [5]: 33.4 µM (inactive)
GI50 [6]: > 100 µM (inactive)
GI50 [7]: > 100 µM (inactive)
GI50 [9]: > 100 µM (inactive)

CN1c2ccc(Cl)cc2C(=O)NC1c1ccc([N+](=O)[O-])s1 (stereo unspecified)
GI50 [8]: 15 µM (inactive)

CCOC(=O)C(Cc1c[nH]c2cc([N+](=O)[O-])ccc12)NS(=O)(=O)c1ccc2ccccc2c1 (stereo unspecified)
GI50 [1]: 19 µM (inactive)
GI50 [3]: 17.5 µM (inactive)
GI50 [4]: 19.7 µM (inactive)
GI50 [5]: 17.3 µM (inactive)
GI50 [6]: 17.2 µM (inactive)
GI50 [7]: 17.5 µM (inactive)
GI50 [9]: 29.5 µM (inactive)

CCOc1ccc(NC2=NC(=O)C(CC(=O)Nc3ccccc3[N+](=O)[O-])S2)cc1 (stereo unspecified)
GI50 [1]: > 100 µM (inactive)
GI50 [3]: > 100 µM (inactive)
GI50 [4]: > 100 µM (inactive)
GI50 [5]: > 100 µM (inactive)
GI50 [6]: > 100 µM (inactive)
GI50 [7]: > 100 µM (inactive)

OCc1ccc(C2CC(c3ccco3)=NN2c2ccccc2)o1 (stereo unspecified)
GI50 [1]: > 100 µM (inactive)
GI50 [3]: > 100 µM (inactive)
GI50 [4]: > 100 µM (inactive)
GI50 [5]: > 100 µM (inactive)
GI50 [6]: > 100 µM (inactive)
GI50 [7]: > 100 µM (inactive)

CO/C(=N\N=C\c1ccc(OC)cc1OC)c1ccncc1
GI50 [8]: > 10 µM (inactive)

Cc1csc(=S)n1OC(=O)NC1CCCCC1
GI50 [3]: 13.8 µM (inactive)
GI50 [4]: 12.3 µM (inactive)
GI50 [5]: > 100 µM (inactive)
GI50 [6]: 16.5 µM (inactive)
GI50 [7]: > 49.4 µM (inactive)

O=[N+]([O-])c1ccc(SN=S=NSc2cccc(SN=S=NSc3ccc([N+](=O)[O-])cc3)c2)cc1
GI50 [8]: 11.1 µM (inactive)

ClC1(Cl)C(c2ccccc2)C1c1ccccc1 (stereo unspecified)
GI50 [8]: 34.6 µM (inactive)

CCOC(=O)c1ccc(OCc2nc3cc(C(F)(F)F)ccc3nc2-c2ccccc2)cc1
GI50 [8]: > 100 µM (inactive)

Cc1cc2c(cc1Cl)SC(c1ccccc1O)NS2(=O)=O (stereo unspecified)
GI50 [8]: 6.95 µM (inactive)

O=C(O)c1cc(NC2=C(Cl)C(=O)c3c(O)ccc(O)c3C2=O)ccc1O
GI50 [8]: > 10 µM (inactive)

Cc1ccc(NC(=S)SCCC(=O)O)cc1
GI50 [1]: > 100 µM (inactive)
GI50 [2]: > 100 µM (inactive)
GI50 [3]: > 100 µM (inactive)
GI50 [4]: > 100 µM (inactive)
GI50 [7]: > 100 µM (inactive)

O=C(O)c1ccccc1NC(c1ccccc1)c1ccc2cccnc2c1O (stereo unspecified)
GI50 [8]: 11.3 µM (inactive)

O=C(c1ccco1)N(C(=S)OCc1ccccn1)c1ccccc1
GI50 [8]: 25.1 µM (inactive)

COc1cc2ccc3c4cc(OC)c(OC(C)C)cc4cnc3c2cc1OC
GI50 [1]: > 100 µM (inactive)
GI50 [2]: > 100 µM (inactive)
GI50 [3]: > 100 µM (inactive)
GI50 [4]: > 100 µM (inactive)
GI50 [6]: > 100 µM (inactive)
GI50 [9]: > 100 µM (inactive)

N#CC(C#N)=C(N)/C(C#N)=C/c1ccc2[nH]ccc2c1
GI50 [1]: > 100 µM (inactive)
GI50 [8]: > 100 µM (inactive)
GI50 [4]: > 100 µM (inactive)
GI50 [6]: > 100 µM (inactive)
GI50 [7]: > 100 µM (inactive)
GI50 [9]: 71.4 µM (inactive)

Cc1ccc(C)n2c1nc1ccc3ccccc3c12
GI50 [8]: 45 µM (inactive)

Cc1cc(C)n(-c2ccnc3cc(Cl)ccc23)n1
GI50 [1]: > 100 µM (inactive)
GI50 [3]: > 100 µM (inactive)
GI50 [4]: > 100 µM (inactive)
GI50 [5]: > 100 µM (inactive)
GI50 [6]: > 100 µM (inactive)
GI50 [7]: > 100 µM (inactive)
GI50 [9]: > 100 µM (inactive)

CC(C)=CC(=O)c1[nH]c2ccccc2c1CC(=O)NCCc1cncn1C
GI50 [8]: 34.6 µM (inactive)

CCCCCCCCCC(=O)CC(=O)c1ccc(O)cc1O
GI50 [1]: 38 µM (inactive)
GI50 [3]: 30.5 µM (inactive)
GI50 [7]: 28.2 µM (inactive)
GI50 [9]: 20.1 µM (inactive)

c1cncc(-c2cc(-c3cc(-c4cccnc4)[nH]n3)n[nH]2)c1
GI50 [8]: > 100 µM (inactive)

COc1cc(C(C#N)NNC(=O)c2ccccc2O)ccc1O (stereo unspecified)
GI50 [1]: 29.4 µM (inactive)
GI50 [3]: 1.6 µM (inactive)
GI50 [6]: 3.58 µM (inactive)
GI50 [9]: 4.91 µM (inactive)

CCOC(=O)c1ccc(/N=C2/C(=S)N(c3ccc(C(=O)OCC)cc3)C(=N)N2/N=C/c2ccccc2)cc1
GI50 [8]: 2.77 µM (inactive)
